Where two headings read alike, the source gives them in different places.

Consider 8 compounds from publication PMC6627438, “Terrosamycins A and B, Bioactive Polyether Ionophores from Streptomyces sp. RKND004 from Prince Edward Island Sediment” (Marine Drugs, 2019).

In test [1] the test system is methicillin-resistant S. aureus ATCC 33591 (MRSA). Kind of test: Antimicrobial assay (OD600 growth, CLSI microdilution), MRSA. In kind it is cell-based, Staphyloccocus aureus. The note with it: Staphylococcus aureus, 22 h, read-out: IC50 MRSA. The procedure:
(§1) The antimicrobial activities of 1 and 2 were evaluated against a panel of pathogens. For comparison, three known polyether ionophore standards were selected and tested in parallel. […] Furthermore, salinomycin and monensin are currently approved and marketed as antibiotics and anticoccidial agents for cattle and poultry. The compounds were each tested against the Gram-positive pathogens methicillin-resistant Staphyloccocus aureus (MRSA), vancomycin resistant Enterococcus faecium (VRE) and Staphylococcus warneri, Gram-negative pathogens Pseudomonas aeruginosa and Proteus vulgaris, and the yeast Candida albicans. No activity was observed against P. aeruginosa, P. vulgaris or C. albicans at the highest concentration tested (128 μg/mL).
(§2) The antimicrobial activities of 1–5 were evaluated using a panel of human pathogens including methicillin-resistant S. aureus ATCC 33591 (MRSA), vancomycin resistant E. faecium EF379 (VRE), S. warneri ATCC 17917, P. aeruginosa ATCC 14210, P. vulgaris ATCC 12454 and C. albicans ATCC 14035. Assays were performed according to Clinical Laboratory Standards Institute testing standards in a 96-well plate and in triplicate. Compounds 1–5 were dissolved in sterile 20% DMSO and serially diluted creating a range of twelve concentrations between 128 μg/mL and 0.0625 μg/mL. A Thermo Scientific Varioskan Flash plate reader was used to determine cell growth by measuring the optical density at 600 nm at time zero and after incubation at 37 °C for 22 h. The change in OD600 was calculated, percentages of microorganism survival were compared to the vehicle control wells and IC50 values were determined using GraphPad Prism 6.0 (GraphPad Software, San Diego, CA, USA). Control antibiotics used were vancomycin for MRSA and S. warneri, rifampicin for VRE, gentamycin for P. aeruginosa, ciprofloxacin for P. vulgaris and nystatin for C. albicans.

Test [2] deals with vancomycin resistant E. faecium EF379 (VRE). In words: Antimicrobial assay (OD600 growth, CLSI microdilution), VRE. In kind it is cell-based, Enterococcus faecium. Conditions: 22 h, read-out: IC50 VRE. The procedure: The antimicrobial activities of 1 and 2 were evaluated against a panel of pathogens. For comparison, three known polyether ionophore standards were selected and tested in parallel. […] The compounds were each tested against the Gram-positive pathogens methicillin-resistant Staphyloccocus aureus (MRSA), vancomycin resistant Enterococcus faecium (VRE) and Staphylococcus warneri, Gram-negative pathogens Pseudomonas aeruginosa and Proteus vulgaris, and the yeast Candida albicans.
as §2, with “Compounds 1–5 were dissolved in sterile 20% DMSO and serially diluted creating a range of twelve concentrations between 128 μg/mL and 0.0625 μg/mL.” left out
For orientation: Broth dilution looks for growth in wells or tubes with falling amounts of substance.

For a further test, the system named is S. warneri ATCC 17917. In words: Antimicrobial assay (OD600 growth, CLSI microdilution), S. warneri. In kind it is cell-based. The note with it: Staphylococcus warneri, read-out: IC50 S. warneri. How it is done:
as §1, §2

Test [3] has as its system human breast adenocarcinoma cells (ATCC HTB-26). In words: Cytotoxicity assay (alamarBlue), HTB-26. In kind it is cell-based. The note with it: read-out: IC50 HTB-26. The procedure: (§3) In light of this information, 1, 2 and the known polyether standards were tested against a human breast adenocarcinoma cell line (HTB-26) and a human invasive breast ductal carcinoma cell line (MCF-7). The compounds were also tested in a healthy human foreskin fibroblast cell line (BJ) and healthy Cercopithecus aethiops kidney epithelial cells (Vero) as an evaluation of cytotoxicity toward healthy cells.
(§4) The cytotoxicities of compounds 1–5 were evaluated using two healthy cell lines—human foreskin fibroblast cells (BJ, ATCC CRL-2522) and Cercopithecus aethiops kidney epithelial cells (Vero, ATCC CCL-81)—as well as two cancer cell lines—human breast adenocarcinoma cells (ATCC HTB-26) and human invasive breast ductal carcinoma cells (ATCC MCF-7). Each cell line was grown and maintained in 15 mL of Eagle’s Minimal Essential Medium in T75 cm^2 cell culture flasks with the exception of HTB-26 cells which were grown in Dulbecco’s Modified Eagle’s Medium/Nutrient Mixture F-12 Ham. All growth media were supplemented with 10% fetal bovine serum, […] penicillin and 0.1 mg/mL streptomycin; the growth medium for MCF-7 cells was also supplemented with 0.01 mg/mL human recombinant insulin. All cell cultures were incubated at 37 °C in a humidified atmosphere with 5% CO2 and culture media was refreshed every two to three days. The cells were not allowed to exceed 80% confluency. At 80% confluency, the cells were counted and diluted in their respective growth medium without addition of antibiotics. Aliquots of 90 μL were added to a microwell plate at a density of 1 × 10^4 cells/well for Vero and HTB-26 cells and 5 × 10^3 cells/well for BJ fibroblast and MCF-7 cells. The plates were incubated at 37 °C with 5% CO2 for 24 h to allow cells to adhere to the plates prior to treatment. The vehicle DMSO was used to dissolve 1 and 2 and was present at a final concentration of 1% in each of the wells. A dilution series was prepared for each cell line using the respective growth medium and 10 μL aliquots of each was added to the respective plate in concentrations ranging from 128 μg/mL to 1 μg/mL in triplicate. Positive control wells contained only the growth medium and DMSO, negative control wells contained the growth medium, DMSO and cells and positive treated controls contained the growth medium, cells and a concentration range of either zinc pyrithione (BJ fibroblast), phenoxyethanol (Vero), or doxorubicin (HTB-26 and MCF-7). All plates were incubated at 37 °C with 5% CO2 for 24 h (BJ fibroblast, Vero) or 72 h (HTB-26, MCF-7). Following incubation, alamarBlue was added to each well at a concentration of 10% (v/v). Fluorescence was measured at 560 nm excitation and 590 nm emission using a Thermo Scientific Varioskan Flash plate reader at time zero and 4 h after treatment with alamarBlue. The change in 590 nm emission reading was used to calculate percent cell viability after each treatment relative to the negative controls. The IC50 values of compounds 1–5 for each cell line were calculated using GraphPad Prism 6.0.
In general terms: The colour change of resazurin is a common sign of viable cells or microbes.

Test [4] deals with human invasive breast ductal carcinoma cells (ATCC MCF-7). In words: Cytotoxicity assay (alamarBlue), MCF-7. In kind it is cell-based. Conditions: read-out: IC50 MCF-7. How it is done:
as §3, §4

The test system of test [5] is Cercopithecus aethiops kidney epithelial cells (Vero, ATCC CCL-81). In words: Cytotoxicity assay (alamarBlue), Vero. In kind it is cell-based. Conditions: Chlorocebus sabaeus, 24 h, read-out: IC50 Vero. The procedure:
as §3, §4

In test [6] the test system is human foreskin fibroblast cells (BJ, ATCC CRL-2522). In words: Cytotoxicity assay (alamarBlue), BJ. In kind it is cell-based. Conditions: 24 h, read-out: IC50 BJ. How it is done: as §3, §4
Where [7] appears, read: average ± SE (n = 6), 37 °C, OD600.
[8] abbreviates: ATCC17917, average ± SE (n = 6), 37 °C, 22 h, OD600.
The mark [9] stands for this setting: HTB26, average ± SE (n = 3), 72 h, alamarBlue, breast cancer cell line.
Setting [10] is: MCF7, average ± SE (n = 3), 72 h, alamarBlue, breast cancer cell line.
Where [11] appears, read: average ± SE (n = 3), alamarBlue, healthy cell line.

Broadly, the IC50 is the midpoint of a concentration-inhibition curve. As for `C[C@@H]1C[C@H](C)[C@@](O)(C[C@H]2O[C@@](O)(C[C@@H](O)[C@@H](C)C(=O)[C@](C)(O)[C@@H]3CC[C@@](C)([C@H]4CC[C@@](C)(O)[C@H](C)O4)O3)[C@H](C)C[C@@H]2C)O[C@H]1C[C@H]1CC[C@H](C)[C@@H]([C@@H](C)C(=O)O)O1` [terrosamycin A (1), terrosamycin A], the IC50 in test [1] is 0.5 ± 0.2 µM; in test [2] it was 0.58 ± 0.04 µM; in the test with S. warneri ATCC 17917 (ATCC17917, 22 h) it was 0.9 ± 0.3 µM; in test [3] (HTB26, 72 h), 10.1 ± 0.6 µM; in test [4] (MCF7, 72 h), 6 ± 1 µM; in test [5], 36 ± 6 µM. For the same compound, the IC50 in test [6] came out at 79 ± 5 µM.

Turning to `CO[C@@H]1C[C@@H](C[C@H]2CC[C@H](C)[C@H]([C@@H](C)C(=O)O)O2)O[C@]2(O[C@](C)([C@H]3CC[C@@](C)([C@@H]4O[C@@H]([C@H]5O[C@@](O)(CO)[C@H](C)C[C@@H]5C)C[C@@H]4C)O3)C[C@H]2C)[C@@H]1C` [nigericin (5), nigericin], the half-inhibitory concentration (IC50) in test [1] (setting [7]) came out at 0.2 ± 0.1 µM; in test [2] (setting [7]), 0.5 ± 0.1 µM; in the test with S. warneri ATCC 17917 (setting [8]) it was 0.3 ± 0.1 µM; in test [3] (setting [9]) it was 13 ± 2 µM; in test [4] (setting [10]), 9 ± 3 µM; in test [5] (setting [11]), 61 ± 8 µM. In test [6] (setting [11]), the half-maximal inhibitory concentration (IC50) came out at 221 ± 10 µM.

As for `CC[C@@H](C(=O)[C@@H](C)[C@@H](O)[C@H](C)[C@@H]1O[C@@H]([C@@H](CC)C(=O)O)CC[C@@H]1C)[C@H]1O[C@]2(C=C[C@@H](O)[C@]3(CC[C@@](C)([C@H]4CC[C@](O)(CC)[C@H](C)O4)O3)O2)[C@H](C)C[C@@H]1C` [salinomycin (3), salinomycin], the IC50 in test [1] amounted to 0.4 ± 0.1 µM; in test [2] it was 0.8 ± 0.2 µM; in the test with S. warneri ATCC 17917 (setting [8]), 0.9 ± 0.2 µM; in test [3] (setting [9]), 13 ± 1 µM; in test [4] (setting [10]), 10 ± 3 µM; in test [5] (setting [11]) it was 78 ± 22 µM. In test [6] (setting [11]), the IC50 was 196 ± 3 µM.

For the compound `CC[C@@]1([C@@H]2O[C@@H]([C@H]3O[C@@](O)(CO)[C@H](C)C[C@@H]3C)C[C@@H]2C)CC[C@H]([C@]2(C)CC[C@]3(C[C@H](O)[C@@H](C)[C@@H]([C@@H](C)[C@@H](OC)[C@H](C)C(=O)O)O3)O2)O1` [monensin (4), monensin], the half-inhibitory concentration (IC50) in test [1] (setting [7]) came to 1.5 ± 0.1 µM; in test [2] (setting [7]), 8 ± 5 µM; in the test on S. warneri ATCC 17917 (setting [8]) it was 2 ± 0.2 µM; in test [3] (setting [9]), 10 ± 1 µM; in test [4] (setting [10]) it was 7 ± 2 µM; in test [5] (setting [11]), 10000 µM. The IC50 in test [6] (setting [11]) was found to be 245 ± 11 µM.

Turning to `COc1cccc2c1C(=O)c1c(O)c3c(c(O)c1C2=O)C[C@@](O)(C(=O)CO)C[C@@H]3O[C@H]1C[C@H](N)[C@H](O)[C@H](C)O1` [doxorubicin control, doxorubicin], the 50% inhibitory concentration (IC50) came to 4 ± 2 µM in test [3] (setting [9]) and 0.8 ± 0.1 µM in test [4] (setting [10]).

Regarding `CO[C@H]1/C=C/O[C@@]2(C)Oc3c(C)c(O)c4c(O)c(c(/C=N/N5CCN(C)CC5)c(O)c4c3C2=O)NC(=O)/C(C)=C\C=C\[C@H](C)[C@H](O)[C@@H](C)[C@@H](O)[C@@H](C)[C@H](OC(C)=O)[C@@H]1C` [rifampicin control, rifampicin], the concentration for half-maximal inhibition (IC50) in test [2] (setting [7]) was determined as 1.1 ± 0.1 µM.

As to `CN[C@H](CC(C)C)C(=O)N[C@H]1C(=O)N[C@@H](CC(N)=O)C(=O)N[C@H]2C(=O)N[C@H]3C(=O)N[C@H](C(=O)N[C@H](C(=O)O)c4cc(O)cc(O)c4-c4cc3ccc4O)[C@H](O)c3ccc(c(Cl)c3)Oc3cc2cc(c3O[C@@H]2O[C@H](CO)[C@@H](O)[C@H](O)[C@H]2O[C@H]2C[C@](C)(N)[C@H](O)[C@H](C)O2)Oc2ccc(cc2Cl)[C@H]1O` [vancomycin control, vancomycin], the IC50 in test [1] is 0.8 ± 0.1 µM; with S. warneri ATCC 17917 (ATCC17917, 22 h), 0.53 ± 0.01 µM.

On to `CO[C@@]1(C[C@@H](O)[C@@H](C)C(=O)[C@](C)(O)[C@@H]2CC[C@@](C)([C@H]3CC[C@@](C)(O)[C@H](C)O3)O2)O[C@H](C[C@@]2(OC)O[C@@H](C[C@H]3CC[C@H](C)[C@@H]([C@@H](C)C(=O)O)O3)[C@H](C)C[C@@H]2C)[C@@H](C)C[C@H]1C` [terrosamycin B (2), terrosamycin B], for which the half-inhibitory concentration (IC50) in test [1] turned out to be 0.34 ± 0.04 µM; in test [2], 0.5 ± 0.1 µM; in the test on S. warneri ATCC 17917 (ATCC17917, 22 h), 0.7 ± 0.1 µM; in test [3] (HTB26, 72 h), 6 ± 1 µM; in test [4] (MCF7, 72 h), 3.9 ± 0.4 µM; in test [5], 93 ± 4 µM. The IC50 in test [6] worked out at 267 ± 28 µM.
